In publication PMC12892976, “Alkylation-based optimization of antifungal FPPS inhibitors yields a potent, broad-spectrum lipophilic zoledronate derivative” (mBio, 2025):
Like-named read-outs stand apart in the source and are kept apart here.

Tests used:
HEK-293T cells = assay: MTT reduction cytotoxicity assay; type: cell-based; settings: Homo sapiens, HEK-293T, 72 h, HEK-293T, MTT, 72 h; read-out: HEK IC50
Aspergillus fumigatus [1] = assay: checkerboard drug interaction (FICI, MICc); type: cell-based;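 further: simplified diagonal checkerboard screen pairing antifungals with FPPS inhibitors against Aspergillus fumigatus, with FICI calculated under the Loewe additivity model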
Method: (§1) Drug interactions between antifungals and FPPS inhibitors were investigated using a simplified checkerboard diagonal screening method ([45]). […] FICIs were determined according to the Loewe additivity model ([17]).

Saccharomyces cerevisiae [2] = assay: MIC/MFC broth microdilution (CLSI); type: cell-based; settings: Saccharomyces cerevisiae S288c
Method: (§2) Antifungal susceptibility was determined by broth microdilution according to the CLSI guidelines described in M27-Ed4 ([16]). […] MFC was determined by back-plating drug-treated cultures from MIC broths onto SDA plates. The MFC was defined as the lowest concentration from which no colonies could be cultured.

Trichophyton rubrum [3] = assay: checkerboard drug interaction (FICI, MICc);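 further: simplified diagonal checkerboard screen pairing azole antifungals with FPPS inhibitors, FICI calculated under the Loewe additivity model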; type: cell-based; settings: T. rubrum
Method: as §1

Cryptococcus neoformans [4] = assay: MIC/MFC broth microdilution (CLSI); settings: Cryptococcus neoformans;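 further: susceptibility testing followed the CLSI M27-Ed4 broth microdilution document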
Method: as §2

Saccharomyces cerevisiae [5] = assay: checkerboard drug interaction (FICI, MICc); type: cell-based; parameters: INH MICc / INH MICc (ITR:INH) / INH MICc (KET:INH) / INH MICc (FLC:INH): unit not given beside the values;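 further: simplified diagonal checkerboard screen pairing antifungals with FPPS inhibitors, FICI calculated under the Loewe additivity model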
[6] = system: Cryptococcus deuterogattii; assay: checkerboard drug interaction (FICI, MICc);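 on all read-outs here: simplified diagonal checkerboard screen pairing antifungal drugs with FPPS inhibitors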; type: cell-based; settings: C. deuterogattii; for INH FD (MIC-MICc fold decrease): fold decrease of inhibitor MIC
Method: as §1

Candida albicans [7] = assay: MIC/MFC broth microdilution (CLSI); type: cell-based; settings: Candida albicans SC5314
Method: as §2

Aspergillus flavus [8] = assay: checkerboard drug interaction (FICI, MICc);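 further: simplified diagonal checkerboard screen pairing azole antifungals with FPPS inhibitors, FICI calculated under the Loewe additivity model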; type: cell-based; parameters: INH MICc (KET:INH) / INH MICc (FLC:INH): unit not given beside the values; settings: A. flavus
Candida glabrata [9] = assay: checkerboard drug interaction (FICI, MICc);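 on all read-outs here: simplified diagonal checkerboard screen pairing antifungals with FPPS inhibitors, FICI calculated under the Loewe additivity model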; type: cell-based; settings: C. glabrata; for INH FD (MIC-MICc fold decrease): fold decrease of inhibitor MIC
Method: as §1

Trichophyton rubrum [10] = assay: MIC/MFC broth microdilution (CLSI); settings: Trichophyton rubrum
Method: as §2

Candida glabrata [11] = assay: MIC/MFC broth microdilution (CLSI); settings: Nakaseomyces glabratus, CBS138;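 further: broth microdilution following CLSI M27-Ed4, MFC taken as the lowest drug level yielding no growth once MIC wells were subcultured on SDA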
Method: as §2

Candida albicans [12] = assay: checkerboard drug interaction (FICI, MICc);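 on all read-outs here: antifungal plus FPPS inhibitor combinations on Candida albicans tested by a simplified diagonal checkerboard screen, with FICI calculated under the Loewe additivity model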; type: cell-based; settings: C. albicans; for INH FD (MIC-MICc fold decrease): fold decrease of inhibitor MIC
Method: as §1

eight fungal species [13] = assay: MIC/MFC summary across the eight fungal species of Table 1; type: cell-based
Method: The antifungal activity of these compounds was evaluated according to CLSI guidelines ([16]).

[14] = system: Cryptococcus deuterogattii; assay: MIC/MFC broth microdilution (CLSI); settings: Cryptococcus deuterogattii;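 further: broth microdilution per CLSI M27-Ed4. MFC is the lowest concentration yielding no colonies when MIC broths are subcultured onto SDA plates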
Method: as §2

Aspergillus fumigatus [15] = assay: MIC/MFC broth microdilution (CLSI); settings: ATCC204305
Method: as §2

Aspergillus flavus [16] = assay: MIC/MFC broth microdilution (CLSI); settings: ATCC204304
Method: as §2

eight fungal species [17] = assay: checkerboard interaction with azoles, summary across the eight species; type: cell-based; settings: geometric mean MIC in combination with azoles
From the text: Synergy between lipophilic FPPS inhibitors and azole antifungals was investigated by determining the fractional inhibitory concentration index (FICI) (Fig. 2; Table S1 Fig. S1) ([17]). […]. Derivatives PLA9 and 11, and PDA9, 11, and 12 antagonized azoles in C. albicans, C. neoformans, and C. deuterogattii, yet were largely synergistic in C. glabrata and S. cerevisiae. […].

Cryptococcus neoformans [18] = assay: checkerboard drug interaction (FICI, MICc);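 on all read-outs here: antifungal plus FPPS inhibitor pairs tested against Cryptococcus neoformans by simplified diagonal checkerboard screening, FICI computed under the Loewe additivity model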; type: cell-based; settings: C. neoformans; for INH FD (MIC-MICc fold decrease): fold decrease of inhibitor MIC
Method: as §1

[19] = Fractional Inhibitory Concentration Index, fluconazole + inhibitor
[20] = Fractional Inhibitory Concentration Index, itraconazole + inhibitor
[21] = Fractional Inhibitory Concentration Index, ketoconazole + inhibitor
[22] = MIC of the inhibitor in combination with fluconazole
[23] = MIC of the inhibitor in combination with itraconazole
[24] = MIC of the inhibitor in combination with ketoconazole
[25] = MIC-MICc fold decrease of fluconazole, negative = increase
[26] = MIC-MICc fold decrease of itraconazole, negative = increase
[27] = MIC-MICc fold decrease of ketoconazole, negative = increase
[28] = MIC-MICc fold decrease of the inhibitor, with fluconazole
[29] = MIC-MICc fold decrease of the inhibitor, with itraconazole
[30] = MIC-MICc fold decrease of the inhibitor, with ketoconazole
[31] = FLC:INH combination, MIC of the inhibitor in combination with FLC
[32] = FLC:INH combination, fold decrease of FLC MIC
[33] = ITR:INH combination, MIC of the inhibitor in combination with ITR
[34] = ITR:INH combination, fold decrease of ITR MIC
[35] = KET:INH combination, MIC of the inhibitor in combination with KET
[36] = KET:INH combination, fold decrease of KET MIC

CCCCCCCCCN1CCC[C@H]1C(=O)N[C@H](CC(=O)O)C(=O)O [PDA9]
IC50 (HEK-293T cells): > 256 µg/mL | FICI (FLC:INH) (Aspergillus fumigatus [1]; [19]): 2 | FICI (ITR:INH) (Aspergillus fumigatus [1]; [20]): 0.25 | FICI (KET:INH) (Aspergillus fumigatus [1]; [21]): 1.5 | INH MICc (FLC:INH) (Aspergillus fumigatus [1]; [22]): 256 | INH MICc (ITR:INH) (Aspergillus fumigatus [1]; [23]): 1 | INH MICc (KET:INH) (Aspergillus fumigatus [1]; [24]): 128 | FLC FD (FLC:INH) (Aspergillus fumigatus [1]; [25]): 1 | ITR FD (ITR:INH) (Aspergillus fumigatus [1]; [26]): 4 | KET FD (KET:INH) (Aspergillus fumigatus [1]; [27]): 1 | INH FD (FLC:INH) (Aspergillus fumigatus [1]; [28]): 1 | INH FD (ITR:INH) (Aspergillus fumigatus [1]; [29]): 256 | INH FD (KET:INH) (Aspergillus fumigatus [1]; [30]): 2 | MFC (Saccharomyces cerevisiae [2]): > 128 µg/mL | MIC (Saccharomyces cerevisiae [2]): > 128 µg/mL | FICI (FLC:INH) (Trichophyton rubrum [3]; [19]): 3 | FICI (ITR:INH) (Trichophyton rubrum [3]; [20]): 2 | FICI (KET:INH) (Trichophyton rubrum [3]; [21]): 0.75 | INH MICc (FLC:INH) (Trichophyton rubrum [3]; [22]): 256 | INH MICc (ITR:INH) (Trichophyton rubrum [3]; [23]): 256 | INH MICc (KET:INH) (Trichophyton rubrum [3]; [24]): 64 | FLC FD (FLC:INH) (Trichophyton rubrum [3]; [25]): -2 | ITR FD (ITR:INH) (Trichophyton rubrum [3]; [26]): 1 | KET FD (KET:INH) (Trichophyton rubrum [3]; [27]): 2 | INH FD (FLC:INH) (Trichophyton rubrum [3]; [28]): 1 | INH FD (ITR:INH) (Trichophyton rubrum [3]; [29]): 1 | INH FD (KET:INH) (Trichophyton rubrum [3]; [30]): 4 | MFC (Cryptococcus neoformans [4]): > 128 µg/mL | MIC (Cryptococcus neoformans [4]): > 128 µg/mL | FICI (FLC:INH) (Saccharomyces cerevisiae [5]; [19]): 0.75 | FICI (ITR:INH) (Saccharomyces cerevisiae [5]; [20]): 2.06 | FICI (KET:INH) (Saccharomyces cerevisiae [5]; [21]): 0.5 | INH MICc (FLC:INH) (Saccharomyces cerevisiae [5]; [22]): 64 | INH MICc (ITR:INH) (Saccharomyces cerevisiae [5]; [23]): 16 | INH MICc (KET:INH) (Saccharomyces cerevisiae [5]; [24]): 64 | FLC FD (FLC:INH) (Saccharomyces cerevisiae [5]; [25]): 2 | ITR FD (ITR:INH) (Saccharomyces cerevisiae [5]; [26]): -2 | KET FD (KET:INH) (Saccharomyces cerevisiae [5]; [27]): 4 | INH FD (FLC:INH) (Saccharomyces cerevisiae [5]; [28]): 4 | INH FD (ITR:INH) (Saccharomyces cerevisiae [5]; [29]): 16 | INH FD (KET:INH) (Saccharomyces cerevisiae [5]; [30]): 4 | FICI ([6]; FLC:INH combination): ≥4 | INH MICc [6, 31]: 256 | FLC FD (MIC-MICc fold decrease) [6, 32]: -4 | INH FD (MIC-MICc fold decrease) ([6]; FLC:INH combination): 1 | FICI ([6]; ITR:INH combination): ≥4 | INH MICc [6, 33]: 256 | ITR FD (MIC-MICc fold decrease) [6, 34]: < -4 | INH FD (MIC-MICc fold decrease) ([6]; ITR:INH combination): 1 | FICI ([6]; KET:INH combination): 2 | INH MICc [6, 35]: 256 | KET FD (MIC-MICc fold decrease) [6, 36]: 1 | INH FD (MIC-MICc fold decrease) ([6]; KET:INH combination): 1 | MFC (Candida albicans [7]): > 128 µg/mL | MIC (Candida albicans [7]): > 128 µg/mL | FICI (FLC:INH) (Aspergillus flavus [8]; [19]): 1 | FICI (ITR:INH) (Aspergillus flavus [8]; [20]): 1.02 | FICI (KET:INH) (Aspergillus flavus [8]; [21]): 1 | INH MICc (FLC:INH) (Aspergillus flavus [8]; [22]): 128 | INH MICc (ITR:INH) (Aspergillus flavus [8]; [23]): 4 | INH MICc (KET:INH) (Aspergillus flavus [8]; [24]): 128 | FLC FD (FLC:INH) (Aspergillus flavus [8]; [25]): 2 | ITR FD (ITR:INH) (Aspergillus flavus [8]; [26]): 1 | KET FD (KET:INH) (Aspergillus flavus [8]; [27]): 2 | INH FD (FLC:INH) (Aspergillus flavus [8]; [28]): 2 | INH FD (ITR:INH) (Aspergillus flavus [8]; [29]): 64 | INH FD (KET:INH) (Aspergillus flavus [8]; [30]): 2 | FICI (Candida glabrata [9]; FLC:INH combination): 0.31 | INH MICc (Candida glabrata [9]; [31]): 4 | FLC FD (MIC-MICc fold decrease) (Candida glabrata [9]; [32]): 4 | INH FD (MIC-MICc fold decrease) (Candida glabrata [9]; FLC:INH combination): 64 | FICI (Candida glabrata [9]; ITR:INH combination): 0.28 | INH MICc (Candida glabrata [9]; [33]): 2 | ITR FD (MIC-MICc fold decrease) (Candida glabrata [9]; [34]): 4 | INH FD (MIC-MICc fold decrease) (Candida glabrata [9]; ITR:INH combination): 128 | FICI (Candida glabrata [9]; KET:INH combination): 0.28 | INH MICc (Candida glabrata [9]; [35]): 2 | KET FD (MIC-MICc fold decrease) (Candida glabrata [9]; [36]): 4 | INH FD (MIC-MICc fold decrease) (Candida glabrata [9]; KET:INH combination): 128 | MFC (Trichophyton rubrum [10]): > 128 µg/mL | MIC (Trichophyton rubrum [10]): > 128 µg/mL | MFC (Candida glabrata [11]): > 128 µg/mL | MIC (Candida glabrata [11]): > 128 µg/mL | FICI (Candida albicans [12]; FLC:INH combination): ≥4 | INH MICc (Candida albicans [12]; [31]): 64 | FLC FD (MIC-MICc fold decrease) (Candida albicans [12]; [32]): < -4 | INH FD (MIC-MICc fold decrease) (Candida albicans [12]; FLC:INH combination): 4 | FICI (Candida albicans [12]; ITR:INH combination): ≥4 | INH MICc (Candida albicans [12]; [33]): 64 | ITR FD (MIC-MICc fold decrease) (Candida albicans [12]; [34]): < -4 | INH FD (MIC-MICc fold decrease) (Candida albicans [12]; ITR:INH combination): 4 | FICI (Candida albicans [12]; KET:INH combination): ≥4 | INH MICc (Candida albicans [12]; [35]): 64 | KET FD (MIC-MICc fold decrease) (Candida albicans [12]; [36]): < -4 | INH FD (MIC-MICc fold decrease) (Candida albicans [12]; KET:INH combination): 4 | MFC (eight fungal species [13]; across eight species, read-out: Geometric mean MFC): > 128 µg/mL | MIC (eight fungal species [13]; geometric mean across eight species, read-out: GM fungal MIC): > 128 µg/mL | MIC (eight fungal species [13]; read-out: Geometric mean MIC): > 128 µg/mL | MFC [14]: > 128 µg/mL | MIC [14]: > 128 µg/mL | MFC (Aspergillus fumigatus [15]): > 128 µg/mL | MIC (Aspergillus fumigatus [15]): > 128 µg/mL | MFC (Aspergillus flavus [16]): > 128 µg/mL | MIC (Aspergillus flavus [16]): > 128 µg/mL | GM fungal MICc (eight fungal species [17]): 52.3 | FICI (Cryptococcus neoformans [18]; FLC:INH combination): ≥4 | INH MICc (Cryptococcus neoformans [18]; [31]): 256 | FLC FD (MIC-MICc fold decrease) (Cryptococcus neoformans [18]; [32]): < -4 | INH FD (MIC-MICc fold decrease) (Cryptococcus neoformans [18]; FLC:INH combination): 1 | FICI (Cryptococcus neoformans [18]; ITR:INH combination): ≥4 | INH MICc (Cryptococcus neoformans [18]; [33]): 128 | ITR FD (MIC-MICc fold decrease) (Cryptococcus neoformans [18]; [34]): -4 | INH FD (MIC-MICc fold decrease) (Cryptococcus neoformans [18]; ITR:INH combination): 2 | FICI (Cryptococcus neoformans [18]; KET:INH combination): ≥4 | INH MICc (Cryptococcus neoformans [18]; [35]): 128 | KET FD (MIC-MICc fold decrease) (Cryptococcus neoformans [18]; [36]): -4 | INH FD (MIC-MICc fold decrease) (Cryptococcus neoformans [18]; KET:INH combination): 2
